Experimental data: patent US20140171445A1, “TREATMENT AND PREVENTION OF DISEASES MEDIATED BY MICROORGANISMS VIA DRUG-MEDIATED MANIPULATION OF THE EICOSANOID BALANCE” (priority 2011, published 2014)

Experiments:
[1] = system: Mycobacterium tuberculosis; parameters: species or system C57BL6 mice; details: mouse, in vivo
tuberculosis = details: intranasal; Antonelli et al., J. Clin. Investigation 2010; cited from earlier work
[2] = system: Mycobacterium tuberculosis

## poly-ICLC
[1]
  colony forming units (CFU) in lungs: approximately 8.9 log^10 CFU
tuberculosis
  effect on tuberculosis in mice: exacerbate tuberculosis
[2]; M. tuberculosis-infected B6 mice treated with poly-ICLC alone, five mice
  mice that survived past day 53 post-infection: None
[2]; M. tuberculosis-infected B6 mice, after 31 days, treated with intranasal poly-ICLC twice weekly
  mean weight as % of starting weight: approximately 74%

## CC(c1cc2ccccc2s1)N(O)C(N)=O (centres unmarked) [zileuton]
[1]
  colony forming units (CFU) in lungs: approximately 7.6 log^10 CFU
